Data published in patent US20250188092A1, “RIFAMYCIN ANALOGS” (THE REGENTS OF THE UNIVERSITY OF MICHIGAN, priority 2021, published 2025).
Values after ≈ are worked out from the molar mass of the structure shown.

Tests used:
E. coli WT RNAP = biological target: T1, E. coli WT RNAP (Escherichia coli, UniProt P0A8V2); assay: biochemical
T1 construct: made in house

[1] = biological target: T2, E. coli D516V (RIF^R) RNAP (Escherichia coli, UniProt P0A8V2, D516V); assay: biochemical
T2 construct: made in house

[2] = biological target: T3, E. coli S531L (RIF^R) RNAP (Escherichia coli, UniProt P0A8V2, S531L); assay: biochemical
T3 construct: made in house

VERO cells (ATCC CRL-81) = assay: Vero cell toxicity; type: cell-based; conditions: Chlorocebus sabaeus, Vero; 72 hours exposure
Method: Cytotoxicity for a mammalian cell line was determined by exposing VERO cells (ATCC CRL-81) to serial dilutions of test compounds for 72 hours, followed by addition of resazurin and measurement of fluorescence after 4 hours incubation (Choules, et al., Antimnicrob. Agents Chemother. 2019, 63, e02204-02218).

MTB H37Rv ATCC 27294 = assay: MIC, microplate Alamar Blue assay (MABA); type: cell-based, Mycobacterium tuberculosis
M. tuberculosis H37Rv = assay: Minimum bactericidal concentration (MBC, CFU Assay); type: cell-based, Mycobacterium tuberculosis
DPX2 cells = conditions: for DPX2 Viability @ 6.25 μM: 24 h; for DPX2 Viability @ 25 μM: human
[3] = Mycobacterium tuberculosis, MTB H37Rv ATCC 27294, microplate Alamar Blue assay, lowest concentration giving ≥90% reduction in fluorescence

| SMILES | IC50 (E. coli WT RNAP) [µM] | IC50 [1] [µM] | IC50 [2] [µM] | IC50 (VERO cells (ATCC CRL-81)) [µM] | MIC90 MABA Rel to RMP (MTB H37Rv ATCC 27294) | MIC (MTB H37Rv ATCC 27294; Mycobacterium tuberculosis, MTB H37Rv ATCC 27294, microplate Alamar Blue assay, lowest concentration giving ≥90% reduction in fluorescence, read-out: MIC90 MABA) [µM] | MBC99 Day 7 (CFU Assay) MBC99 Rel to RMP (M. tuberculosis H37Rv; CFU Assay MBC99 relative to rifampin (RMP = 1)) | MBC (M. tuberculosis H37Rv; Mycobacterium tuberculosis, 168 h, Day 7, M. tuberculosis H37Rv, ≥99% reduction in colony forming units, read-out: MBC99 Day 7 (CFU Assay) MBC99) [µM] | MIC90 (MTB H37Rv ATCC 27294; [3]) [µM] | DPX2 Viability @ 6.25 μM (DPX2 cells) [%] | DPX2 Viability @ 25 μM (DPX2 cells) [%] | DPX2 Viability (DPX2 cells; 21 μM) [%] |
| --- | --- | --- | --- | --- | --- | --- | --- | --- | --- | --- | --- | --- |
| CO[C@H]1/C=C/O[C@@]2(C)Oc3c(C)c(O)c4c(=O)c(c5oc6cccc(OCCCCN7CCN(C(=O)OC(C)(C)C)CC7)c6nc-5c4c3C2=O)NC(=O)/C(C)=C\C=C\[C@H](C)[C@H](O)[C@@H](C)[C@@H](O)[C@@H](C)[C@H](OC(C)=O)[C@@H]1C [Compound 5c, Tert-Butyl 4-(4-{[(7S,9E,11S,12R,13S,14R,15R,16R,17S,18S,19E,21Z)-13-(acetyloxy)-2,15,17-trihydroxy-11-methoxy-3,7,12,14,16,18,22-heptamethyl-6,23,37-trioxo-8,27,38-trioxa-24,34-diazahexacyclo[23.11.1.1^4,7.0^5,36.0^26,35.0^28,33]octatriaconta-1(36)2,4,9,19,21,25,28(33)29,31,34-undecaen-32-yl]oxy}butyl)piperazine-1-carboxylate] | < 0.005 | 22 | 300 | 6.2 | 0.89 | 0.024 (≈ 0.025 µg/mL) | 0.77 | 0.1 (≈ 0.104 µg/mL) | – | – | – | – |
| CO[C@H]1/C=C/O[C@@]2(C)Oc3c(C)c(O)c4c(=O)c(c5oc6cccc(OCc7cccc(CN8CCN(C(C)=O)CC8)c7)c6nc-5c4c3C2=O)NC(=O)/C(C)=C\C=C\[C@H](C)[C@H](O)[C@@H](C)[C@@H](O)[C@@H](C)[C@H](OC(C)=O)[C@@H]1C [Compound 11c, (7S,9E,11S,12R,13S,14R,15R,16R,17S,18S,19E,21Z)-32-({3-[(4-Acetylpiperazin-1-yl)methyl]phenyl}methoxy)-2,15,17-trihydroxy-11-methoxy-3,7,12,14,16,18,22-heptamethyl-6,23,37-trioxo-8,27,38-trioxa-24,34-diazahexacyclo-[23.11.1.1^4,7.0^5,36.0^26,35.0^28,33]octatriaconta-1(36)2,4,9,19,21,25,28,30,32,34-undecaen-13-yl acetate] | 0.019 | 8.8 | 330 | > 8 | 1.4 | – | – | – | 0.058 | 103 | 70 | – |
| CCC(=O)N1CCN(Cc2cccc(COc3cccc4oc5c6c(=O)c7c(O)c(C)c8c(c7c-5nc34)C(=O)[C@@](C)(O/C=C/[C@H](OC)[C@@H](C)[C@@H](OC(C)=O)[C@H](C)[C@H](O)[C@H](C)[C@@H](O)[C@@H](C)/C=C/C=C(/C)C(=O)N6)O8)c2)CC1 [Compound 11d, (7S,9E,11S,12R,13S,14R,15R,16R,17S,1S,19E,21Z)-2,15,17-Trihydroxy-11-methoxy-3,7,12,14,16,18,22-heptamethyl-6,23,37-trioxo-32-{(3-[(4-propanoylpiperazin-1-yl)methyl]phenyl}methoxy)-8,27,38-trioxa-24,34-diazahexacyclo[23.11.1.1^4,7.0^5,36.0^26,35.0^28,33]octatriaconta-1(36)2,4,9,19,21,25,28,30,32,34-undecaen-13-yl acetate] | < 0.005 | 0.9 | 94 | 19.1 | 0.43 | – | – | – | 0.016 | 77 | 33 | – |
| CO[C@H]1/C=C/O[C@@]2(C)Oc3c(C)c(O)c4c(=O)c(c5oc6cccc(OCc7cccc(CN8CCN(C(=O)CN9CCOCC9)CC8)c7)c6nc-5c4c3C2=O)NC(=O)/C(C)=C\C=C\[C@H](C)[C@H](O)[C@@H](C)[C@@H](O)[C@@H](C)[C@H](OC(C)=O)[C@@H]1C [Compound 11f, (7S,9E,11S,12R,13S,14R,15R,16R,17S,1S,19E,21Z)-2,15,17-Trihydroxy-11-methoxy-3,7,12,14,16,18,22-heptamethyl-32-{[3-({4-[2-(morpholin-4-yl)acetyl]piperazin-1-yl}methyl)phenyl]methoxy}-6,23,37-trioxo-8,27,38-trioxa-24,34-diazahexacyclo[23.11.1.1^4,7.0^5,36.0^26,35.0^28,33]octatriaconta-1(36)2,4,9,19,21,25,28,30,32,34-undecaen-13-yl acetate] | 0.01 | 39 | > 500 | 6.2 | 0.65 | – | – | – | 0.024 | 103 | – | 57 |
| CO[C@H]1/C=C/O[C@@]2(C)Oc3c(C)c(O)c4c(=O)c(c5oc6cccc(OCc7cccc(CN8CCN(C(=O)Cc9ccccc9)CC8)c7)c6nc-5c4c3C2=O)NC(=O)/C(C)=C\C=C\[C@H](C)[C@H](O)[C@@H](C)[C@@H](O)[C@@H](C)[C@H](OC(C)=O)[C@@H]1C [Compound 11g, (7S,9E,11S,12R,13S,14R,15R,16R,17S,18S,19E,21Z)-2,15,17-Trihydroxy-11-methoxy-3,7,12,14,16,18,22-heptamethyl-6,23,37-trioxo-32-[(3-{[4-(2-phenylacetyl)-piperazin-1-yl]methyl}phenyl)methoxy]-8,27,38-trioxa-24,34-diazahexacyclo[23.11.1.1^4,7.0^5,36.0^26,35.0^28,33]octatriaconta-1(36)2,4,9,19,21,25,28,30,32,34-undecaen-13-yl acetate] | < 0.005 | 0.58 | 28 | > 32 | 0.30 | – | – | – | 0.011 | 88 | 70 | – |
| CO[C@H]1/C=C/O[C@@]2(C)Oc3c(C)c(O)c4c(=O)c(c5oc6cccc(OCc7ccc(CN8CCN(C(=O)CN9CCOCC9)CC8)cc7)c6nc-5c4c3C2=O)NC(=O)/C(C)=C\C=C\[C@H](C)[C@H](O)[C@@H](C)[C@@H](O)[C@@H](C)[C@H](OC(C)=O)[C@@H]1C [Compound 16c, (7S,9E,11S,12R,13S,14R,15R,16R,17S,18S,19E,21Z)-2,15,17-Trihydroxy-11-methoxy-3,7,12,14,16,18,22-heptamethyl-32-{[4-({4-[2-(morpholin-4-yl)acetyl]piperazin-1-yl}methyl)phenyl]methoxy}-6,23,37-trioxo-8,27,38-trioxa-24,34-diazahexacyclo[23.11.1.1^4,7.0^5,36.0^26,35.0^28,33]octatriaconta-1(36)2,4,9,19,21,25,28,30,32,34-undecaen-13-yl acetate] | 0.005 | 10 | 92 | > 8 | 0.51 | – | – | – | 0.019 | 96 | 55 | – |
| CO[C@H]1/C=C/O[C@@]2(C)Oc3c(C)c(O)c4c(=O)c(c5oc6cc(C)cc(N7CCN(CC(C)C)CC7)c6nc-5c4c3C2=O)NC(=O)/C(C)=C\C=C\[C@H](C)[C@H](O)[C@@H](C)[C@@H](O)[C@@H](C)[C@H](OC(C)=O)[C@@H]1C [Compound 30c, (7S,9E,11S,12R,13S,14R,15R,16R,17S,18S,19E,21Z)-2,15,17-Trihydroxy-11-methoxy-3,7,12,14,16,18,22,30-octamethyl-32-[4-(2-methylpropyl)piperazin-1-yl]-6,23,37-trioxo-8,27,38-trioxa-24,34-diazahexacyclo[23.11.1.1^4,7.0^5,36.0^26,35.0^28,33]octatriaconta-1(36)2,4,9,19,21,25,28,30,32,34-undecaen-13-yl acetate] | 0.006 | 10 | 130 | > 8 | <0.6 | – | – | – | < 0.016 | 93 | 49 | – |
| CO[C@H]1/C=C/O[C@@]2(C)Oc3c(C)c(O)c4c(=O)c(c5oc6cc(C=Nc7ccc(N8CCOCC8)cc7)cc(N7CCN(C)CC7)c6nc-5c4c3C2=O)NC(=O)/C(C)=C\C=C\[C@H](C)[C@H](O)[C@@H](C)[C@@H](O)[C@@H](C)[C@H](OC(C)=O)[C@@H]1C [Compound 32, (7S,9E,11S,12R,13S,14R,15R,16R,17S,18S,19E,21Z)-2,15,17-trihydroxy-11-methoxy-3,7,12,14,16,18,22-heptamethyl-32-(4-methylpiperazin-1-yl)-30-{N-[4-(morpholin-4-yl)phenyl]carboximidoyl}-6,23,37-trioxo-8,27,38-trioxa-24,34-diazahexacyclo[23.11.1.1^4,7.0^5,36.0^26,35.0^28,33]octatriaconta-1,3,5(36)9,19,21,25,28,30,32,34-undecaen-13-yl acetate] | 0.01 | 30 | 330 | > 8 | 1.74 | – | – | – | 0.047 | 116 | 100 | – |
